The values below come from patent publication US10793522B2, “Sulfonamides as inhibitors of the uptake of extracellular citrate” (Boehringer Ingelheim International GmbH, priority 2016, dated 2020).

Sequence of hSLC13A5 (Q86YT5 whole entry): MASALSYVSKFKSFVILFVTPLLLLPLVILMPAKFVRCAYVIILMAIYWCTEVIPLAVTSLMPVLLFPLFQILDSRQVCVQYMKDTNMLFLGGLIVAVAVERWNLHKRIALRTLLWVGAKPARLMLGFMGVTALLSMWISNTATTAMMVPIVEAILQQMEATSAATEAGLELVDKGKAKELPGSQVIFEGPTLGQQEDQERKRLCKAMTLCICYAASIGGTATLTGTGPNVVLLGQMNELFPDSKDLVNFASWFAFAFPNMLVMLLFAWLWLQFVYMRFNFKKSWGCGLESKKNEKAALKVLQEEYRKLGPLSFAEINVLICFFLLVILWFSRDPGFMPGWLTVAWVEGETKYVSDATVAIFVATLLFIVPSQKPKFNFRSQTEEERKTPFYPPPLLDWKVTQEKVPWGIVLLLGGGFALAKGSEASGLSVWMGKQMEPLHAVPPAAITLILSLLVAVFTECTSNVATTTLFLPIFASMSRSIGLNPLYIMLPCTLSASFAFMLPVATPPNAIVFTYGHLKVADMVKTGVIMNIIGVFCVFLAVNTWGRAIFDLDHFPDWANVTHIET

In the assay the target is hSLC13A5 (Homo sapiens, UniProt Q86YT5). As to the kind of experiment: Recombinant hSLC13A5/14C-citrate uptake assay. The conditions noted are these: HEK293 Flp-In cells over-expressing hSLC13A5; WGA-PVT SPA beads; 14C-citrate approx. 2 μM; 4 h. The format is cell-based. From the text:
(5) Recombinant hSLC13A5/^14C-Citrate Uptake Assay
The human embryonic kidney 293 (HEK 293)-Flp-In cells (293Flp-In-hSLC13A5) over-expressing hSLC13A5 transporter were cloned: The originating plasmid pcDNA3.1-hSLC13A5 containing hSLC13A5 was synthesized at GeneArt. The cDNA for hSLC13A5 was taken from this plasmid by means of PCR amplification using primers with added HindIII (N-terminal) and XhoI (C-terminal) restriction sites and sub-cloned in frame into pcDNA5/FRT from Invitrogen using the respective restriction enzymes. HEK293 Flp-In cells from Invitrogen were stably co-transfected using the pcDNA/FRT-hSLC13A5 plasmid as well as the pOG44 plasmid.
HEK 293-Flp-In cells are used that stably over-express hSLC13A5 transporter which is responsible for the uptake of citrate into these cells.
The uptake of ^14C-citrate into the 293Flp-In-hSLC13A5 cells is monitored using the WGA-PVT SPA (wheat germ agglutinin-polyvinyltoluene scintillation proximity assay) beads that bind to the 293Flp-In cells due to their WGA-PVT surface. This assay format is based on the imported radioactive citrate brought into proximity with the SPA beads by virtue of the biological processes within the cells. The radioactive decay is converted into a light signal that can be measured using e.g. the TopCount plate reader.
Method: ^14C-Citrate Uptake Assay
Test Compound Dilutions (2Fold-Concentrated):
Starting from 10 mM stock solutions in 100% DMSO, compounds are diluted in pure DMSO using the appropriate dilution steps.
Prior to the uptake assay, 200 μL assay medium (lx HBSS (with Ca^2+ and Mg^2+, w/o Phenolred), contains 5.56 mM D(+)-Glucose)+19.44 mM D(+)-Glucose (final concentration of D(+)-Glucose is 25 mM))+4.8 μL compound solution (or pure DMSO for non-inhibited control wells) are mixed (final DMSO concentration in the assay: 1% (v/v)).
After preparing the 2fold-concentrated test compound dilutions, 50 μL are pipetted to each well of white OptiPlates-96 and incubated at 37° C. in an incubator.
^14C-Citrate Working Solution (Volumes Required Per 96-Well):
The 293Flp-In-hSLC13A5 cells are cultivated in cell culture medium (DMEM+10% fetal calf serum+100 μg/mL Hygromycin B). The medium of the confluent cultures is discarded and the cells are washed with DPBS (w/o Mg^2+ w/o Ca^2+). The cells are detached by the addition of 2.0 mL Accumax per 75 cm^2 culture flask for up to 3 minutes at 37° C. and resuspended in 10 mL assay medium. After cell counting, 50,000 cells/well are administered in a volume of 50 μL into the white OptiPlates-96 containing the respective test compound concentrations. Following a 20 min incubation at 37° C. in the cell culture incubator, 20 μL of ^14C-citrate working solution is added to each well (final volume per well: 120 μL; final ^14C-citrate concentration: approx. 2 μM/well).
After incubation for 4 h at 37° C. in a humid cell culture incubator and the addition of 30 μL of WGA-PVT SPA beads to each well (0.25 mg/well), the plates are sealed on the top using a transparent plastic foil. Incubate the plates for 1 h by room temperature and gentle shaking.
After incubation, the plate is placed into the TopCount NXT HTS and the signal is recorded.
The performance of the test compounds is calculated as follows:
Wells containing cells incubated with 1% DMSO only deliver values for the non-inhibited ^14C-citrate uptake into 293Flp-In-hSLC13A5 cells (100% CTL). Wells containing cells which have received 30 mM non-labelled potassium citrate solution in addition to the ^14C-citrate working solution deliver values for the background (0% CTL).
The IC50 values of the compounds are calculated in IDBS XLfit by sigmoidal dose-response (variable slope).
As usually defined, the IC50 is the point on the concentration scale where inhibition reaches its midpoint. In the case of `O=C(NCc1ccccc1F)C1CCN(S(=O)(=O)c2cc(Cl)cc(Cl)c2)CC1` [(I-2)], the concentration for half-maximal inhibition (IC50) turned out to be 87 nM.
The same measure for `O=C(NCc1ccc(Cl)cc1)C1CCN(S(=O)(=O)c2cc(Cl)cc(Cl)c2)CC1` [(I-5)]: 56 nM; for `O=C(NCc1ccc(F)cc1)C1CCN(S(=O)(=O)c2cc(Cl)cc(Cl)c2)CC1` [(I-10)]: 56 nM.
The value for `O=C(NCc1ccccn1)C1CCN(S(=O)(=O)c2cc(Cl)cc(Cl)c2)CC1` [(I-11)] was 687 nM; that for `Cc1ccc(CNC(=O)C2CCN(S(=O)(=O)c3cc(Cl)cc(Cl)c3)CC2)nc1` [(I-15)] was 193 nM; that for `O=C(NCc1ccc(F)cn1)C1CCN(S(=O)(=O)c2cc(Cl)cc(Cl)c2)CC1` [(I-20)] was 392 nM.
The value for `Cc1cnc(CNC(=O)C2CCN(S(=O)(=O)c3cc(Cl)cc(Cl)c3)CC2)s1` [(I-27)] was 341 nM; that for `CCOc1cc(Cl)cc(S(=O)(=O)N2CCC(C(=O)NCc3nccs3)CC2)c1` [(I-49)] was 154 nM.
Take `Cc1cc(Br)cc(S(=O)(=O)N2CCC(C(=O)NCc3ccccn3)CC2)c1` [(I-61)]: the IC50 was determined as 437 nM.
The same measure for `N#Cc1ccc(CNC(=O)C2CCN(S(=O)(=O)c3cc(Cl)cc(Cl)c3)CC2)cc1` [Example (I-1)]: 79 nM.
